# Results as given in patent publication US20170296491A1, “PHARMACEUTICAL COMPOSITIONS COMPRISING LEVODOPA AMIDE AND USES THEREOF” (priority 2015, published 2017).
# How the values were obtained:
# [1] = Effect of preparation method and pH on stability of LDA-HCl/CD formulations; format: physicochemical; conditions: 5 days at room temperature (Table 7)
# Protocol: LDA-HCl/CD formulations were prepared by the following methods, and were then tested for stability. Method 1. Carbidopa (CD, powder) [Teva Pharmaceuticals Ltd., Israel] was added to LDA-HCl solution. […] Precipitation occurred at room temperature. Method 2. Liquid CD formulations were prepared by weighting CD [Teva Pharmaceuticals Ltd., Israel] in a suitable container with different L-arginine [Merck] weights to obtain a final concentration of 0.8% CD (wet form, 0.75% dry form) in different molar ratios to arginine (Table 6). CD formulations were prepared as described in the International Publication No. WO 2010/134074. LDA-HCl (powder) was added to CD solutions to attain the final desired concentration of LDA-HCl/CD formulations. Method 3. CD solutions (40 mg/ml, prepared as described in the International Publication No. WO 2010/134074) were mixed with LDA-HCl solutions to attain the final desired concentration of LDA/CD formulations. The LDA-HCl formulations were prepared by dissolving 200, 160 or 120 mg/ml of LDA-HCl in 40 mM citric buffer. The chemical stability of 7 LDA-HCl/CD formulations was evaluated by HPLC analysis at t0 and after 5 days at room temperature. The recovery after 5 days at room temperature was calculated compared to t0 (Table 7).
# [2] = Plasma levels of LDA and LD after intravenous LDA-HCl in mice; format: in vivo
# Protocol: (§1) The purpose of this experiment was to determine the plasma levels of LDA and LD following intravenous (IV) and oral (PO) administration of LDA-HCl in CD-1 mice.
# (§2) CD-1 mice which were prepared for oral administration had to undergo fasting overnight prior to the dosing. The orally treated mice received food only 2 hour post-dosing. The method used to dose orally was oesophagotubage, and the IV mice were injected via a jugular vein under anesthesia (Isoflurane/O2). LDA-HCl solutions were dissolved in citrate buffer and LD/CD solution was prepared according to International Publication No. WO 2010/134074.
# (§3) Blood samples were collected following the oral and IV dosing at pre-determined time points and plasma levels of LDA and LD were analysed by LC-MS-MS.
# [3] = Plasma levels of LDA and LD after oral LDA-HCl in mice; format: in vivo
# Protocol: as §1, §2, §3
# [4] = Plasma pharmacokinetics of LDA and LD after oral LDA-HCl with and without CD in rats; format: in vivo; conditions: oral LDA-HCl 25 mg/kg
# Protocol: The purpose of this experiment was to determine the plasma pharmacokinetics of LDA and LD following oral administration of LD or LDA-HCl with and without CD in Wistar rats.
# Wistar rats underwent fasting overnight prior to the dosing and received food only 2 hour post-dosing. The method used to dose orally was via oesophagotubage. Solutions were prepared as described above.
# [5] = Stability of LDA 200 mg/ml solution with HCl; format: physicochemical
# Protocol: The effect of HCl, representing an inorganic acid, on the stability of LDA solution was evaluated. HCl solution containing 0.3% Tween 80 was added to LDA to obtain a solution having a final LDA concentration of 200 mg/ml and a molar ratio of about 1:1 LDA:HCl. The physical stability of the solution and the chemical stability of LDA were evaluated (Table 13). As shown, LDA (200 mg/ml) is stable for at least 9 days in solution containing HCl at a molar ratio of about 1:1.
# [6] = Dissolution and stability of LDA in organic acid solutions; format: physicochemical; conditions: for Chemical stability after 3 days at RT: in % (unit assumed)
# Protocol: The effect of organic acids on the stability of LDA solution was evaluated. Formulations were prepared by adding small aliquots of organic acid solutions, 100-300 μl, to ˜240 mg LDA until full dissolution while pH was monitored. The end point of acid addition was decided by appearance and/or by pH and/or total volume. LDA concentration was determined by HPLC.
# [7] = Physical stability of LDA-HCl solutions with or without added CD-Arg formulation; format: physicochemical; conditions: 0.75% CD; CD:Arg 1:1.25; LDA:HCl 1:0.92; pH 5.69; time points not separated
# Protocol: HCl solutions at 3 different concentrations containing 0.3% Tween 80 were added to LDA to obtain solutions having a final LDA concentration of 200 mg/ml and a molar ratio of 1:0.89, 1:0.92 and 1:0.95 LDA:HCl. CD-Arg formulation (CD:Arg molar ratio 1:1.25) was prepared in Tween 80 0.3% and was added gradually under stirring to 4 volumes of each of the 3 LDA-HCl solutions. The physical stability of the solutions was evaluated (Table 15). As shown, the addition of CD to LDA-HCl solutions yielded stable solutions if added to LDA-HCl solutions having a pH>3.8, preferably pH >4.6.
# [8] = Solubility of LDA in water in the absence of an acid; format: physicochemical; conditions: water with and without 0.3% Tween-80, absence of an acid; data not shown
# From the text: LDA in water with and without 0.3% Tween-80, at concentrations greater than 2.5% (data not shown), is not soluble in the absence of an acid.
# [9] = peripheral administration; cited from earlier work
structure (smiles),measurement,setting,value
"NC(=O)C(N)Cc1ccc(O)c(O)c1 (stereo not drawn) [LDA, 2-amino-3-(3,4-dihydroxyphenyl)propanamide]",chemical stability in LDA-HCl/CD formulations,[1],pH-dependent
same,LDA plasma level,"[2]; IV LDA-HCl 20 mg/kg, 1 h thereafter",below limit of quantification
same,metabolism of LDA to LD,[2]; IV administration of LDA-HCl 20 mg/kg,rapidly metabolized to LD
same,half-life of LDA compared with LD,[2]; IV and oral administration of LDA-HCl,shorter than that of LD
same,bioavailability,[3]; administered orally,low
same,metabolism of LDA to LD,[3]; oral administration of LDA-HCl 20 mg/kg,rapidly metabolized to LD
same,metabolism of LDA to LD,[4],rapidly metabolized to LD
same,time stable in solution,[5]; HCl at a molar ratio of about 1:1,at least 9 days
same,Chemical stability of LDA 9 days,"[5]; LDA:HCl molar ratio 1:0.94, pH 5.81, 0.3% Tween 80, in % (unit assumed)",100.1
same,Chemical stability after 3 days at RT,"[6]; Acetic acid, LDA:acid 1:1.2, pH 5.0",98.4
same,Chemical stability after 3 days at RT,"[6]; Citric acid, LDA:acid 1:08, pH 2.8",99.3
same,time physically and chemically stable at RT,[6]; LDA dissolved in organic acid solutions,at least 3 days
same,Chemical stability after 3 days at RT,"[6]; Succinic acid, LDA:acid 1:0.5, pH 5.7",99.1
same,Chemical stability after 3 days at RT,"[6]; Tartaric acid, LDA:acid 1:0.6, pH 3.8",100.5
same,LDA,"[6]; dissolved with Acetic acid, pH 5.0",199 mg/mL
same,LDA,"[6]; dissolved with Citric acid, pH 2.8",236 mg/mL
same,LDA,"[6]; dissolved with Citric acid, pH 5.6",175 mg/mL
same,LDA,"[6]; dissolved with Glutamic acid, pH 5.8",128 mg/mL
same,LDA,"[6]; dissolved with Succinic acid, pH 5.7",194 mg/mL
same,LDA,"[6]; dissolved with Tartaric acid, pH 3.8",334 mg/mL
same,Precipitations,[7],Slight
same,soluble concentration in water,[8],≤ 2.5%
"N[C@@H](Cc1ccc(O)c(O)c1)C(=O)O [LD, L-3,4-dihydroxyphenylalanine, reference compound]",LD plasma level,"[2]; IV LDA-HCl 20 mg/kg, 3 h thereafter",below limit of quantification
same,share of administered levodopa that enters the brain unaltered,[9],1-3%
